Columns and labels:
[1] = system: monoclonal antibody MV-004; test: In vitro inhibition assay (ELISA), MV-004 binding to original epitope; parameters: species or system BalbC mice; details: OD at 10 μg peptide compared to original peptide
Procedure: (§1) 2. In vitro inhibition assay (ELISA)
(§2) Different amounts of peptides (concentrations ranging from 10 μg to 0.08 μg; serial dilutions), derived from Phage Display were incubated with the monoclonal antibody that was used for the screening procedure. Peptides diminishing subsequent binding of the antibody to the original epitope coated on ELISA plates were considered as inhibiting in this assay.

[2] = system: full length and/or truncated and modified forms of Aβ; test: In vivo characterisation of mimotopes: detection of Aβ/truncated/modified forms; parameters: species or system C57/bl6 mice; key: +: All peptides listed in Table 5 mount specific immune reactions against full length and/or truncated and modified forms of Aβ or fragments thereof; details: MV-003 derived mimotopes; mimotope vaccination
Procedure: (§3) Inhibiting as well as non-inhibiting peptides were coupled to KLH and injected into mice (wildtype C57/Bl6 mice; subcutaneous injection into the flank) together with an appropriate adjuvant (aluminium hydroxide). Animals were vaccinated 3-6 times in biweekly intervals and sera were taken biweekly as well. Titers to injected peptides, as well as to an irrelevant peptide were determined with every serum. Furthermore, titers against the recombinant human Aβ protein, and against original peptides were determined respectively. In general sera were analysed by reaction against peptides coupled to Bovine Serum Albumin (BSA) and recombinant full length proteins which were immobilised on ELISA plates. Titers were determined using anti mouse IgG specific antibodies. For detailed results see FIGS. 6, 7 and 8 respectively.
(§4) Female C57/bl6 mice, 5-6 mice per group, were subcutaneously immunized with 30 μg peptide coupled to KLH. Control groups were administered original epitope-KLH conjugates respectively. As adjuvant alum was used (always 1 mg per mouse). […] The in vitro ELISA assay to determine the antibody titer was performed with sera of single mice after each vaccination in a two week interval (see FIGS. 6 and 7 respectively). The wells of the ELISA plate were coated with mimotope-BSA conjugate and an irrelevant peptide-BSA conjugate (negative control). The positive control was performed by reaction of the parental antibody with the respective mimotope-BSA conjugate. The detection was performed with anti-mouse IgG. Additionally, recombinant proteins were immobilised on ELISA plates and sera reacted accordingly. FIGS. 6 to 8 show representative examples for assays used to characterise mimotopes in vivo.

[3] = system: monoclonal antibody MV-003; test: In vitro inhibition assay (ELISA), MV-003 binding to original epitope; parameters: species or system BalbC mice; details: OD at 10 μg peptide compared to original peptide
Procedure: as §1, §2

Tg2576 AD mouse model = test: Area occupied by amyloid plaques in Tg2576 mice after mimotope vaccination; type: in vivo; details: Tg2576, 6 s.c. injections at monthly intervals, peptide-KLH conjugate with ALUM; for average area occupied by amyloid plaques: mAb 3A5 staining, control group 0.35%; for reduction of area occupied by amyloid plaques following mimotope treatment: versus control group
[4] = system: full length and/or truncated and modified forms of Aβ; test: In vivo characterisation of mimotopes: detection of Aβ/truncated/modified forms; parameters: species or system C57/bl6 mice; key: +: All peptides listed in Table 4 mount specific immune reactions against full length and/or truncated and modified forms of Aβ or fragments thereof; details: MV-001 derived mimotopes; mimotope vaccination
Procedure: as §3, §4

[5] = system: monoclonal antibody MV-001; test: In vitro binding assay (ELISA), parental antibody MV-001; parameters: species or system C57/Bl6 mice; details: peptide-BSA on ELISA plate; OD halfmax, dilution factor 1:X of parental AB MV-001
Procedure: (§5) 1. In vitro binding assay (ELISA)
(§6) Peptides derived from Phage Display as well as variants thereof were coupled to BSA and bound to ELISA plates (1 μM; as indicated in the respective figures) and subsequently incubated with the monoclonal antibody that was used for the screening procedure to analyse binding capacity of identified peptides.

[6] = system: monoclonal antibody MV-001; test: In vitro inhibition assay (ELISA), MV-001 binding to original epitope; parameters: species or system C57/Bl6 mice; details: OD at 10 μg peptide compared to original peptide
Procedure: as §1, §2

[7] = system: monoclonal antibody MV-003; test: In vitro binding assay (ELISA), parental antibody MV-003; parameters: species or system BalbC mice; details: peptide-BSA on ELISA plate; OD halfmax, dilution factor 1:X of parental AB MV-003
Procedure: as §5, §6

[8] = molecular target: monoclonal antibody MV-004; test: inhibition ELISA; competitor: coated original epitope p4372; details: for Inhibition Capacity: scale: code
[9] = molecular target: monoclonal antibody MV-004; test: ELISA, peptide-BSA coated, MV-004; details: for Binding Capacity: scale: code
[10] = molecular target: monoclonal antibody MV-003; test: ELISA, peptide-BSA coated, MV-003; details: for Binding Capacity: scale: code
[11] = molecular target: monoclonal antibody MV-003; test: inhibition ELISA; competitor: coated original epitope p4373

EVWHRLQC [p4419]
Inhibition Capacity [1]: 2 (strong inhibition (as original epitope; OD of 10 μg peptide below 2 times of original peptide))

VRWDVYPC [p4396]
Detection of Aβ/truncated/modified forms [2]: +

ELWHRYPC [p4420]
Inhibition Capacity [1]: 1 (Weaker than original epitope (OD of 10 μg peptide below 5 times of original peptide))

EVWHRHC [p4789]
Inhibition Capacity [1]: 1 (Weaker than original epitope (OD of 10 μg peptide below 5 times of original peptide))

IRWDGC [p4792]
Inhibition Capacity [3]: 1 (Weaker than original epitope (OD of 10 μg peptide below 12 times of original peptide))

IRWDTPC [p4395]
average area occupied by amyloid plaques (Tg2576 AD mouse model): 0.21% | reduction of area occupied by amyloid plaques following mimotope treatment (Tg2576 AD mouse model): 38% | Inhibition Capacity [3]: 1 (Weaker than original epitope (OD of 10 μg peptide below 12 times of original peptide)) | Detection of Aβ/truncated/modified forms [2]: +

EVWHRHQC [p4417]
Inhibition Capacity [1]: 1 (Weaker than original epitope (OD of 10 μg peptide below 5 times of original peptide))

IRYDMAGC [p4399]
Detection of Aβ/truncated/modified forms [2]: +

IRYDAPLC [p4397]
Inhibition Capacity [3]: 1 (Weaker than original epitope (OD of 10 μg peptide below 12 times of original peptide)) | Detection of Aβ/truncated/modified forms [2]: +

ELWHRAFC [p4665]
Inhibition Capacity [1]: 2 (strong inhibition (as original epitope; OD of 10 μg peptide below 2 times of original peptide))

ELWHRAC [p4786]
Inhibition Capacity [1]: 1 (Weaker than original epitope (OD of 10 μg peptide below 5 times of original peptide))

TSVFRHC [p4383]
Detection of Aβ/truncated/modified forms [4]: + | Binding Capacity [5]: 3 (strong binding :>20000) | Inhibition Capacity [6]: 1 (Weaker than original epitope (OD of 10 μg peptide below 3 times of original peptide))

SPNQFRHC [p4707]
Detection of Aβ/truncated/modified forms [4]: + | Binding Capacity [5]: 3 (strong binding :>20000) | Inhibition Capacity [6]: 1 (Weaker than original epitope (OD of 10 μg peptide below 3 times of original peptide))

IRWDQPC [p4756]
Inhibition Capacity [3]: 1 (Weaker than original epitope (OD of 10 μg peptide below 12 times of original peptide)) | Binding Capacity [7]: 3 (strong binding :>60000)

THTDFRHC [p4725]
Detection of Aβ/truncated/modified forms [4]: + | Binding Capacity [5]: 3 (strong binding :>20000) | Inhibition Capacity [6]: 1 (Weaker than original epitope (OD of 10 μg peptide below 3 times of original peptide))

ERWHEKC [p4790]
Inhibition Capacity [1]: 2 (strong inhibition (as original epitope; OD of 10 μg peptide below 2 times of original peptide))

LMFRHNC [p4386]
Detection of Aβ/truncated/modified forms [4]: + | Binding Capacity [5]: 3 (strong binding :>20000) | Inhibition Capacity [6]: 1 (Weaker than original epitope (OD of 10 μg peptide below 3 times of original peptide))

ERWHEKHC [p4418]
Inhibition Capacity [1]: 2 (strong inhibition (as original epitope; OD of 10 μg peptide below 2 times of original peptide))

EVWHRGC [p4788]
Inhibition Capacity [1]: 1 (Weaker than original epitope (OD of 10 μg peptide below 5 times of original peptide))

QSEFKHWC [p4738]
Detection of Aβ/truncated/modified forms [4]: + | Binding Capacity [5]: 3 (strong binding :>20000) | Inhibition Capacity [6]: 1 (Weaker than original epitope (OD of 10 μg peptide below 3 times of original peptide))

ILFRHGC [p4390]
average area occupied by amyloid plaques (Tg2576 AD mouse model): 0.14% | reduction of area occupied by amyloid plaques following mimotope treatment (Tg2576 AD mouse model): 60% | Detection of Aβ/truncated/modified forms [4]: + | Binding Capacity [5]: 3 (strong binding :>20000) | Inhibition Capacity [6]: 1 (Weaker than original epitope (OD of 10 μg peptide below 3 times of original peptide))

TLHEFRHC [p4715]
average area occupied by amyloid plaques (Tg2576 AD mouse model): 0.22% | reduction of area occupied by amyloid plaques following mimotope treatment (Tg2576 AD mouse model): 36% | Detection of Aβ/truncated/modified forms [4]: + | Binding Capacity [5]: 3 (strong binding :>20000) | Inhibition Capacity [6]: 2 (strong inhibition (as original epitope; OD of 10 μg peptide below 2 times of original peptide))

SEFKHGC [p4381]
average area occupied by amyloid plaques (Tg2576 AD mouse model): 0.11% | reduction of area occupied by amyloid plaques following mimotope treatment (Tg2576 AD mouse model): 67% | Detection of Aβ/truncated/modified forms [4]: + | Binding Capacity [5]: 3 (strong binding :>20000) | Inhibition Capacity [6]: 1 (Weaker than original epitope (OD of 10 μg peptide below 3 times of original peptide))

IRWDGGC [p4793]
Inhibition Capacity [3]: 1 (Weaker than original epitope (OD of 10 μg peptide below 12 times of original peptide))

B1: p4786 (peptide)
peptide: ELWHRAC
Inhibition Capacity (code (weaker than original epitope)) [8]: 1 | Binding Capacity (code (weak binding, OD halfmax 1:<24000)) [9]: 1

B2: p4420 (peptide)
peptide: ELWHRYPC
Inhibition Capacity (code (weaker than original epitope)) [8]: 1 | Binding Capacity [9]: 2

B3: p4792 (peptide)
peptide: IRWDGC
Binding Capacity (code (weak binding, OD halfmax 1:<16000)) [10]: 1 | Inhibition Capacity (code (weaker than original epitope)) [11]: 1

B4: p4665 (peptide)
peptide: ELWHRAFC
Inhibition Capacity [8]: 2 | Binding Capacity [9]: 2

B5: p4756 (peptide)
peptide: IRWDQPC
Binding Capacity [10]: 3 | Inhibition Capacity (code (weaker than original epitope)) [11]: 1

B6: p4793 (peptide)
peptide: IRWDGGC
Binding Capacity [10]: 2 | Inhibition Capacity (code (weaker than original epitope)) [11]: 1

B7: p4788 (peptide)
peptide: EVWHRGC
Inhibition Capacity (code (weaker than original epitope)) [8]: 1 | Binding Capacity (code (weak binding, OD halfmax 1:<24000)) [9]: 1

B8: p4419 (peptide)
peptide: EVWHRLQC
Inhibition Capacity [8]: 2 | Binding Capacity [9]: 3

B9: p4395 (peptide)
peptide: IRWDTPC
Binding Capacity [10]: 2 | Inhibition Capacity (code (weaker than original epitope)) [11]: 1

B10: p4397 (peptide)
peptide: IRYDAPLC
Binding Capacity (code (weak binding, OD halfmax 1:<16000)) [10]: 1 | Inhibition Capacity (code (weaker than original epitope)) [11]: 1

B11: p4789 (peptide)
peptide: EVWHRHC
Inhibition Capacity (code (weaker than original epitope)) [8]: 1 | Binding Capacity (code (weak binding, OD halfmax 1:<24000)) [9]: 1

B12: p4396 (peptide)
peptide: VRWDVYPC
Binding Capacity (code (weak binding, OD halfmax 1:<16000)) [10]: 1

B13: p4417 (peptide)
peptide: EVWHRHQC
Inhibition Capacity (code (weaker than original epitope)) [8]: 1 | Binding Capacity [9]: 2

B14: p4418 (peptide)
peptide: ERWHEKHC
Inhibition Capacity [8]: 2 | Binding Capacity [9]: 3

B15: p4399 (peptide)
peptide: IRYDMAGC
Binding Capacity (code (weak binding, OD halfmax 1:<16000)) [10]: 1

B16: p4790 (peptide)
peptide: ERWHEKC
Inhibition Capacity [8]: 2 | Binding Capacity (code (weak binding, OD halfmax 1:<24000)) [9]: 1

B17: p4728 (peptide)
peptide: IRWDTSLC
Binding Capacity [10]: 3 | Inhibition Capacity ([11]; scale: code): 2
